Source: US11046716B2, “Beta-lactamase inhibitors” (priority 2015, dated 2021)

Tests used:
[1] = tested on: E. cloacae expressing the Class C P99; assay: Broth microdilution MIC assay with ceftazidime, E. cloacae P99; assay type: cell-based; settings: Fixed CAZ (ceftazidime) 4 μg/mL; E. cl. 144200 p99 AmpC
Summary of the method: (§1)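 Potentiation format: the β-lactam was held at 4 μg/ml while the test compound was serially diluted, and growth was scored visually after overnight (16-20 h) incubation at 37° C.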

[2] = tested on: K. pneumoniae expressing the Class A carbapenemase KPC-2; assay: Broth microdilution MIC assay with meropenem, K. pneumoniae KPC-2; assay type: cell-based; settings: Fixed Mero (meropenem) 4 μg/mL; K. p. 156319 KPC-3
Summary of the method: as §1

[3] = tested on: E. coli expressing the Class A Extended Spectrum Beta-Lactamase (ESBL) CTX-M-15; assay: Broth microdilution MIC assay with ceftazidime, E. coli CTX-M-15; assay type: cell-based; settings: Fixed CAZ (ceftazidime) 4 μg/mL; E. coli ESBL4 CTX-M-15
Summary of the method: as §1

VIM-2 = biological target: T1, VIM-2 (Escherichia coli, UniProt Q5U7L7); assay: β-lactamase enzyme inhibition assay, VIM-2 (nitrocefin substrate); assay type: biochemical; settings: Class B; nitrocefin substrate, 486 nm; read-out: VIM-2
T1 construct: made in house; host or cells: E. coli BL21(DE3)
Summary of the method: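 IC50 reflects the inhibitor concentration cutting the initial nitrocefin hydrolysis rate by half, compared with control wells lacking inhibitor. Substrate was used at 100 μM final after a 15 min, 37 °C enzyme–inhibitor preincubation.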

SHV-5 = biological target: T2, SHV-5 (Klebsiella pneumoniae, UniProt P0A3M1); assay: β-lactamase enzyme inhibition assay, SHV-5 (cefotaxime substrate); assay type: biochemical
T2 construct: made in house; host or cells: E. coli BL21(DE3)
Summary of the method: (§2)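 Read-out is the rate of β-lactam ring hydrolysis monitored by absorbance: 300 nm for imipenem with KPC-2 and 260 nm for cefotaxime with SHV-5. Recombinant native enzymes were first incubated with compound at 37 °C for 15 min. The IC50 is the inhibitor concentration that halves the initial hydrolysis rate.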

OXA-48 = OXA-48 (UniProt Q6XEC0); assay: β-lactamase enzyme inhibition assay, Class D oxacillinase; assay type: biochemical; settings: read-out: OXA-48
AmpC = biological target: T3, AmpC (Enterobacter cloacae, UniProt P05364); assay: β-lactamase enzyme inhibition assay, p99 AmpC (nitrocefin substrate); assay type: biochemical
T3 construct: made in house; host or cells: E. coli BL21(DE3)
Summary of the method: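 Read-out is the rate of β-lactam ring hydrolysis monitored by absorbance. Recombinant native enzymes were first incubated with compound at 37 °C for 15 min. The IC50 is the inhibitor concentration that halves the initial hydrolysis rate.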

[4] = tested on: K. pneumoniae expressing the class A carbapenemase KPC-2 and the class B carbapenemase VIM-4; assay: Broth microdilution MIC assay with meropenem, K. pneumoniae KPC-2 and VIM-4; assay type: cell-based; settings: Fixed Mero (meropenem) 4 μg/mL; K. p. A-1797 KPC-2 VIM-4
Summary of the method: as §1

[5] = tested on: K. pneumoniae producing the Class D carbapenemase OXA-48; assay: Broth microdilution MIC assay with meropenem, K. pneumoniae OXA-48; assay type: cell-based; settings: Fixed Mero (meropenem) 4 μg/mL; K. p. 11978 OXA-48
Summary of the method: as §1

[6] = tested on: P. aeruginosa expressing the Class B carbapenemase VIM-2; assay: Broth microdilution MIC assay with meropenem, P. aeruginosa VIM-2; assay type: cell-based; settings: Fixed Mero (meropenem) 4 μg/mL; P. aerug. 2775 VIM-2
Summary of the method: as §1

KPC-2 = biological target: T4, KPC-2 (Klebsiella pneumoniae, UniProt Q9F663); assay: β-lactamase enzyme inhibition assay, KPC-2 (imipenem substrate); assay type: biochemical; settings: Class A; imipenem substrate, 300 nm; read-out: KPC-2
T4 construct: made in house; host or cells: E. coli BL21(DE3)
Summary of the method: as §2

T4 sequence (Q9F663 25-293, looked up): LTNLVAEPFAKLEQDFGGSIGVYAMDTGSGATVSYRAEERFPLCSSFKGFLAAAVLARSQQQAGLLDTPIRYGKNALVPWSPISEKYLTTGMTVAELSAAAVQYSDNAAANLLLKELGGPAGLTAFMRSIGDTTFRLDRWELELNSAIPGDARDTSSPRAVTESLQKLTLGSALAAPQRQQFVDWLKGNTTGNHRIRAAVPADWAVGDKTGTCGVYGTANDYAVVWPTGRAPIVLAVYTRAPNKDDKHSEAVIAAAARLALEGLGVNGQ
T3 sequence (P05364 21-381): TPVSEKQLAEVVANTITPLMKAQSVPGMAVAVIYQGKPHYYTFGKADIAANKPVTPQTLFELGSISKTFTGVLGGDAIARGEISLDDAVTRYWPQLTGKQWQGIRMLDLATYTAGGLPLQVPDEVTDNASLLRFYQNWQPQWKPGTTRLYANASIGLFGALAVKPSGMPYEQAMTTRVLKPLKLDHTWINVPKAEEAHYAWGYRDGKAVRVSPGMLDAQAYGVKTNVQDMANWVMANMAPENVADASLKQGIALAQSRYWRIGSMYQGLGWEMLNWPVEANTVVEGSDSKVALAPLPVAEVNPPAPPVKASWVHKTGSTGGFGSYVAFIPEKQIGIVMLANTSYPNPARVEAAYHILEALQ
T2 sequence (P0A3M1 22-286): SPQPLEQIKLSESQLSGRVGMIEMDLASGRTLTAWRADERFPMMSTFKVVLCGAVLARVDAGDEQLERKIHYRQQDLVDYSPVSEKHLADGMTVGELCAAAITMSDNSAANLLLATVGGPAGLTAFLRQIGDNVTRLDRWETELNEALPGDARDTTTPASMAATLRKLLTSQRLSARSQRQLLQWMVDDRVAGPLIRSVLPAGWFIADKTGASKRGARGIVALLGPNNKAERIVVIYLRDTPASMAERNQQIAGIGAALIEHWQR

SMILES | MIC (μg/mL) of Exemplary Compounds in presence of fixed β-lactams: E. cl. 144200 p99 AmpC [1] | MIC (μg/mL) of Exemplary Compounds in presence of fixed β-lactams: K. p. 156319 KPC-3 [2] | MIC (μg/mL) of Exemplary Compounds in presence of fixed β-lactams: E. coli ESBL4 CTX-M-15 [3] | IC50 (VIM-2) | IC50 (SHV-5) | IC50 (OXA-48) | IC50 (AmpC) | MIC (μg/mL) of Exemplary Compounds in presence of fixed β-lactams: K. p. A-1797 KPC-2 VIM-4 [4] | MIC (μg/mL) of Exemplary Compounds in presence of fixed β-lactams: K. p. 11978 OXA-48 [5] | MIC (μg/mL) of Exemplary Compounds in presence of fixed β-lactams: P. aerug. 2775 VIM-2 [6] | IC50 (KPC-2)
O=C(Cn1cc(C(=O)NC2CCNCC2)nn1)N[C@H]1Cc2cccc(C(=O)O)c2OB1O [Example 83, (R)-2-hydroxy-3-(2-(4-(piperidin-4-ylcarbamoyl)-1H-1,2,3-triazol-1-yl)acetamido)-3,4-dihydro-2H-benzo[e][1,2]oxaborinine-8-carboxylic acid] | C (C represents an MIC of <1 μg/mL) | C (C represents an MIC of <1 μg/mL) | C (C represents an MIC of <1 μg/mL) | < 100 nM | 100 to 1000 nM | 100 to 1000 nM | < 100 nM | B (B represents an MIC between 1 and 16 μg/mL inclusive) | B (B represents an MIC between 1 and 16 μg/mL inclusive) | C (C represents an MIC of <1 μg/mL) | 100 to 1000 nM
NCCn1nnnc1CC(=O)N[C@H]1Cc2cccc(C(=O)O)c2OB1O [Example 41, (R)-3-(2-(1-(2-aminoethyl)-1H-tetrazol-5-yl)acetamido)-2-hydroxy-3,4-dihydro-2H-benzo[e][1,2]oxaborinine-8-carboxylic acid] | C (C represents an MIC of <1 μg/mL) | C (C represents an MIC of <1 μg/mL) | C (C represents an MIC of <1 μg/mL) | < 100 nM | < 100 nM | 100 to 1000 nM | < 100 nM | C (C represents an MIC of <1 μg/mL) | B (B represents an MIC between 1 and 16 μg/mL inclusive) | C (C represents an MIC of <1 μg/mL) | < 100 nM
NCCOCc1cn(CC(=O)N[C@H]2Cc3cccc(C(=O)O)c3OB2O)nn1 [Example 34, (R)-3-(2-(4-((2-aminoethoxy)methyl)-1H-1,2,3-triazol-1-yl)acetamido)-2-hydroxy-3,4-dihydro-2H-benzo[e][1,2]oxaborinine-8-carboxylic acid] | C (C represents an MIC of <1 μg/mL) | B (B represents an MIC between 1 and 16 μg/mL inclusive) | C (C represents an MIC of <1 μg/mL) | 100 to 1000 nM | < 100 nM | 1000 to 10000 nM | < 100 nM | B (B represents an MIC between 1 and 16 μg/mL inclusive) | B (B represents an MIC between 1 and 16 μg/mL inclusive) | C (C represents an MIC of <1 μg/mL) | < 100 nM
NCCn1cnc(C(=O)N[C@H]2Cc3cccc(C(=O)O)c3OB2O)n1 [Example 71, (R)-3-(1-(2-aminoethyl)-1H-1,2,4-triazole-3-carboxamido)-2-hydroxy-3,4-dihydro-2H-benzo[e][1,2]oxaborinine-8-carboxylic acid] | C (C represents an MIC of <1 μg/mL) | C (C represents an MIC of <1 μg/mL) | C (C represents an MIC of <1 μg/mL) | 100 to 1000 nM | 100 to 1000 nM | 10000 to 100000 nM | < 100 nM | B (B represents an MIC between 1 and 16 μg/mL inclusive) | A (A represents an MIC>16 μg/mL) | C (C represents an MIC of <1 μg/mL) | 100 to 1000 nM
N[C@@H]1CCN(C(=O)c2cn(CC(=O)N[C@H]3Cc4cccc(C(=O)O)c4OB3O)nn2)C1 [Example 85, (R)-3-(2-(4-((R)-3-aminopyrrolidine-1-carbonyl)-1H-1,2,3-triazol-1-yl)acetamido)-2-hydroxy-3,4-dihydro-2H-benzo[e][1,2]oxaborinine-8-carboxylic acid] | C (C represents an MIC of <1 μg/mL) | C (C represents an MIC of <1 μg/mL) | C (C represents an MIC of <1 μg/mL) | 100 to 1000 nM | 100 to 1000 nM | 100 to 1000 nM | < 100 nM | B (B represents an MIC between 1 and 16 μg/mL inclusive) | B (B represents an MIC between 1 and 16 μg/mL inclusive) | C (C represents an MIC of <1 μg/mL) | 100 to 1000 nM
NCc1cn(CCC(=O)N[C@H]2Cc3cccc(C(=O)O)c3OB2O)nn1 [Example 30, (R)-3-(3-(4-(aminomethyl)-1H-1,2,3-triazol-1-yl)propanamido)-2-hydroxy-3,4-dihydro-2H-benzo[e][1,2]oxaborinine-8-carboxylic acid] | C (C represents an MIC of <1 μg/mL) | C (C represents an MIC of <1 μg/mL) | C (C represents an MIC of <1 μg/mL) | 100 to 1000 nM | < 100 nM | 100 to 1000 nM | < 100 nM | B (B represents an MIC between 1 and 16 μg/mL inclusive) | B (B represents an MIC between 1 and 16 μg/mL inclusive) | B (B represents an MIC between 1 and 16 μg/mL inclusive) | < 100 nM
NCCc1nnn(CC(=O)N[C@H]2Cc3cccc(C(=O)O)c3OB2O)n1 [Example 103, (R)-3-(2-(5-(2-aminoethyl)-2H-tetrazol-2-yl)acetamido)-2-hydroxy-3,4-dihydro-2H-benzo[e][1,2]oxaborinine-8-carboxylic acid] | C (C represents an MIC of <1 μg/mL) | C (C represents an MIC of <1 μg/mL) | C (C represents an MIC of <1 μg/mL) | 100 to 1000 nM | 100 to 1000 nM | 100 to 1000 nM | < 100 nM | B (B represents an MIC between 1 and 16 μg/mL inclusive) | B (B represents an MIC between 1 and 16 μg/mL inclusive) | C (C represents an MIC of <1 μg/mL) | < 100 nM
